Columns and labels:
[1] = system: acute myeloid leukemia (AML) cell lines; test: MTS proliferation assay in AML cell lines; assay type: cell-based; settings: 48 hours
Method: Cell cultures were exposed for 48 hours to vehicle control and increasing concentrations of FTY720, and subsequently subjected to MTS assay per manufacturer's instructions. Mean concentrations (FIG. 9A) at which proliferation was inhibited by 50% (IC50) and representative dose curves (FIG. 9B) are shown. […] Using MTS assay, inhibition of cell proliferation for various derivatives was examined.

PARP = test: Western blot of PARP processing in Mino cells; assay type: cell-based, Human; settings: Mino cells 24 hrs post treatment
Method: (§1) Primary MCL cells were isolated from PBMC (with informed patient consent under a protocol approved by IRB) as described before. All the MCL patients were identified as outlined by the World Health Organization (WHO) classification. Human mantle cell lymphoma patient cell lines (Mino and Jeko) were obtained from Dr. Raymond Lai. Primary cells or MCL cell lines were incubated in RPMI 1640 media, supplemented with 10%-20% heat-inactivated fetal bovine serum, 2 mM L-glutamine and penicillin (100 U/mL)/streptomycin ([…]) at 37° C. in an atmosphere of 5% CO2. FTY720 was synthesized as previously described. Toxicity was determined by flow cytometry using Annexin-V-FITC and Propidium Iodide (PI) staining. Apoptotic cells were identified as Annexin-V+ and/or PI+ cells. Cells excluding both FITC and PI were considered viable. Western Blotting was performed as described previously using indicated antibodies. The PARP (Ab-2) and Caspase 9 antibodies were purchased from Oncogene/Calbiochem/EMD Biosciences (San Diego, Calif.). Cyclin D1, Akt, Actin, Mcl-1, p-ERK, ERK and Bcl-2 were obtained from Santa Cruz biotech (Santa Cruz, Calif.).
Several therapeutic agents, including fludarabine, chlorambucil, 2-chloro-2-deoxyadenosine and glucocorticoids, induce toxicity in B cell malignancies through activating caspases, the cysteine proteases of CED3/ICE family. […]

[2] = system: PARP, Caspase 3, caspase 8 and caspase 9; test: Western blot of PARP and caspases 3, 8, 9 in CLL cells; assay type: cell-based, Human
Method: Western blotting. Immunoblot assays were performed as described previously.(34) Cell lysates were prepared and quantified by the bicin choninic acid (BCA) method (Pierce, Rockford, Ill.). Lysates with 50 μg of total protein were separated using 10% sodium dodecyl sulfate-polyacrylamide-gel electrophoresis, and transferred to 0.2 μm nitrocellulose membranes (Schleicher & Schuell, Keene, N.H.). The blots were probed with indicated primary antibodies followed by Horseradish peroxidase (HRP)-conjugated goat anti-rabbit IgG or goat anti-mouse IgG (Bio-Rad Laboratories, Richmond, Calif.). Detection was made with chemiluminescent substrate (SuperSignal, Pierce Inc. Rockford, Ill.). The PARP (Ab-2) and Caspase 9 antibodies were purchased from Oncogene/Calbiochem/EMD Biosciences (San Diego, Calif.). The Caspase 3 (AR-14 caspase 3/cpp32 and caspase 8 (AR-18) antibodies were kind gift from Dr. John Reed (Burnham Institute, La Jolla, Calif.).
FTY720 induced apoptosis in CLL cells is not dependent on activation of caspases, the cysteine proteases of CED3/ICE family Several therapeutic agents such as glucocorticoids and chemotherapeutic agents such as fludarabine, chlorambucil and 2-chloro-2-deoxyadenosine induce cellular cytotoxicity in CLL cells through activation of caspases, the cysteine proteases of CED3/ICE family. […]

AML cell lines = test: Cell cycle analysis (propidium iodide DNA content) in AML cell lines; assay type: cell-based; settings: 1 uM and 10 uM, 48 hours
Method: Cell suspensions were treated with vehicle control, 1 uM, and 10 uM FTY720 for 48 hours. After fixation in ethanol, samples were stained with propidium iodide, and assessed for DNA content. Percentage of cells in subG1, G1, S, and G2-M for each cell line are depicted (FIG. 11A) with representative plots below for MV411 (FIG. 11B). Although cell cycle arrest is not seen, induction of apoptosis is noted by the increased fraction of sub G1 with FTY720 treatment.

Akt = test: Western blot of p-Akt and Akt in primary MCL cells; assay type: cell-based, Human
Method: as §1, with “The PARP (Ab-2) and Caspase 9 antibodies were purchased from Oncogene/Calbiochem/EMD Biosciences (San Diego, Calif.). Cyclin D1, Akt, Actin, Mcl-1, p-ERK, ERK and Bcl-2 were obtained from Santa Cruz biotech (Santa Cruz, Calif.).” left out
FTY720 induced apoptosis is associated with down-modulation of Cyclin D1 and Akt. […] To determine if the FTY720 induced apoptosis is mediated through modulation of these targets relevant to the pathogenesis of the disease, we evaluated the effect of FTY720 on levels of Cyclin D1, p-Akt and Akt proteins by Wester Blotting analysis using specific antibodies in primary MCL cells and cell lines. […]

## CCCCCCCCc1ccc(CCC(N)(CO)CO)cc1.Cl [FTY720, 2-Amino-2-[2-(4-octylphenyl)ethyl]propane 1,3-diol hydrochloride]
[1]
  proliferation of AML cell lines (MTS): inhibits proliferation
PARP
  PARP processing: PARP processing comparable to the levels seen with Fludarabine
[2]; 24 and 48 hours post treatment, CLL cells
  PARP cleavage: failed to reveal PARP cleavage
[2]; FTY720 treated CLL cells
  caspases 3, 8 and 9 activation: remained in precursor forms
AML cell lines
  cell cycle arrest in AML cell lines: does not cause cell cycle arrest
Akt
  p-Akt level: decrease in p-Akt

Reference: patent publication US8318812B2, “Therapeutic agents for the treatment of lymphoid malignancies” (The Ohio State University Research Foundation, priority 2006, dated 2012)
